From publication PMC10539800, “Small-molecule inhibitors of the PDZ domain of Dishevelled proteins interrupt Wnt signalling” (Magnetic resonance, 2021)

Tests used:
Dvl-3 PDZ [1] = molecular target: T1, Dvl-3 PDZ (Homo sapiens, UniProt Q92997); experiment: NMR 1H-15N HSQC chemical shift perturbation; format: binding; settings: Dvl-3 PDZ; average of the three strongest shifting cross peaks
T1 construct: spectra of Dvl-3 PDZ in the absence and presence of the compound; His-tag (cleaved yes); made in house
T1 sequence (Q92997 243-336): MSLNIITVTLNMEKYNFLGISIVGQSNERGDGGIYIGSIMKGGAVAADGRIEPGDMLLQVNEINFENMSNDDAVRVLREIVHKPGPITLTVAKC
Procedure: The results of virtual screening were checked experimentally by comparing 2D ^1H-^15N HSQC (heteronuclear single quantum correlation) spectra of Dvl-3 PDZ in the absence and presence of the compound to elucidate ligand-induced changes of chemical shifts. Chemical shift perturbation differences ( Δ CSP, representing the average of the three strongest shifting cross peaks according to Eq. 1) were evaluated in cases where the residues responding strongest are inside the area defined by Fig. 1a. […] In most cases, the signals of residues S263, V287, and R320 (Fig. 1a) within the conserved binding site were most strongly perturbed (Fig. S2). With the Δ CSP of 0.12 ppm, the isoleucine-derived compound 1 ((2,3-dihydrobenzo[b][1,4]dioxin-6-yl)sulfonyl)-L-isoleucine containing a sulfonamide moiety was detected initially as one of the best “hits” according to chemical shift changes. The sulfonamide is a well-known moiety in drug discovery (Mathvink et al., 1999; Wu et al., 1999; Sleight et al., 1998; O'Brien et al., 2000; Tellew et al., 2003).
Two-dimensional ^1H-^15N HSQC spectra were used to screen a library of 212 compounds designed by the company Enamine for PDZ domains. 50 µM of ^15N -labelled protein samples was prepared in a 20 mM sodium phosphate buffer, containing 50 mM sodium chloride, 0.02 % ( w/v ) NaN3 , at pH 7.4. Stock solutions of small molecules were prepared in DMSO-d6 at a concentration of 160 mM. A ^1H-^15N HSQC spectrum of Dvl PDZ was acquired at 300 K with 5 % DMSO-d6 in the absence of ligand as reference spectrum. Mixtures of 16 compounds were added to ^15N -labelled Dvl PDZ at eightfold molar excess each. The final concentration of DMSO-d6 in the protein–ligand solutions was 5 %. Spectra were acquired with eight scans and 256 points in the indirect dimension. […] The active compound was obtained through successive deconvolution. Experiments were recorded on a Bruker DRX600 spectrometer equipped with a triple-resonance cryoprobe. The preparation of samples was done automatically by a Tecan Genesis RSP 150 pipetting robot. Spectra were analysed using the programs TOPSPIN and SPARKY (Goddard and Kneller, 2003).
50 µM of ^15N -labelled protein samples was prepared in a 20 mM sodium phosphate buffer containing 50 mM sodium chloride, 0.02 % ( w/v ) NaN3 , at pH 7.4. Stock solutions of small molecules were prepared in DMSO-d6 at a concentration of 160 mM. A ^1H-^15N HSQC spectrum of Dvl PDZ was acquired at 300 K with 5 % DMSO-d6 in the absence of ligand as reference spectrum. Mixtures of 16 compounds were added to ^15N -labelled Dvl PDZ at eightfold molar excess each. The final concentration of DMSO-d6 in the protein–ligand solutions was 5 %. Spectra were acquired with eight scans and 256 points in the indirect dimension.
The active compound was obtained through successive deconvolution. Experiments were recorded on a Bruker DRX600 spectrometer equipped with a triple-resonance cryoprobe. The preparation of samples was done automatically by a Tecan Genesis RSP 150 pipetting robot. Spectra were analysed using the programs TOPSPIN and SPARKY.

Dvl-3 PDZ [2] = molecular target: T1, Dvl-3 PDZ; experiment: Binding constant by NMR titration; settings: by NMR; mean ± SD of at least six residues; read-out: K D Dvl-3 PDZ
From the text: (§1) K D is the equilibrium dissociation constant.

Dvl-3 PDZ [3] = experiment: Binding constant by NMR titration; set-up: species or system human; settings: from NMR K D values
From the text: as §1

Dvl-1 PDZ [4] = molecular target: T2, Dvl-1 PDZ (Homo sapiens, UniProt O14640, C338S/V250I); experiment: Binding constant by NMR titration; set-up: made in house; host or cells: E. coli BL21 (DE3); settings: mean ± SD of at least six residues, read-out: K D Dvl-1 PDZ
T2 sequence (O14640 245-338 V250I/C338S): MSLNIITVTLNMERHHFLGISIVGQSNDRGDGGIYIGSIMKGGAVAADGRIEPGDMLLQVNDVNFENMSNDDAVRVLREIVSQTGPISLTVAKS
Procedure: Chemical shift perturbations were obtained by comparing the ^1H-^15N backbone resonances of protein alone to those of protein–ligand complex. […] 1 Δδ=[ΔδH]^2+[ΔδN5]^2/2 Here ΔδN and ΔδH are the amide nitrogen and amide proton chemical shift differences between the free and the bound states of the protein. In order to estimate binding constants, titration experiments monitored by NMR were done. A series of ^1H-^15N HSQC were recorded as a function of ligand concentration. Residues showing a continuous chemical shift change and for which the intensity remained strong were classified as being in fast exchange. […] [LT] is the total concentration of the compound, and [PT] is the total concentration of the protein. K D is the equilibrium dissociation constant. The K D values are reported as means ± standard deviations of at least six residues influenced upon binding of the ligand.

Dvl-1 PDZ [5] = molecular target: Dvl-1 PDZ; set-up: method as in Kim et al., 2016; settings: value from literature; ref Kim et al., 2016; read-out: K D Dvl-1 PDZ; cited from earlier work

SMILES | Chemical shift perturbation ΔCSP (Dvl-3 PDZ [1]) | Kd (Dvl-3 PDZ [2]) | discrimination between Dvl-3 PDZ and Dvl-1 PDZ (in words) (Dvl-3 PDZ [3]) | Kd (Dvl-1 PDZ [4]) | Kd (Dvl-1 PDZ [5])
O=C(O)c1cc(F)ccc1NS(=O)(=O)c1ccc2c(c1)CCCC2 [Compound 5] | > 0.2 ppm | 141 ± 14.1 µM | did not distinguish | 160 ± 14.6 µM | 
CCOC(=O)c1cc2cc(O)ccc2n1CC(=O)NCCN1CCCCC1 [Ky-02327, ethyl 5-hydroxy-1-(2-oxo-2-((2-(piperidin-1-yl)ethyl)amino)ethyl)-1H-indole-2-carboxylate] |  |  |  |  | 8.3 ± 0.8 µM
